Paper PMC11062894, “Protein-based bandpass filters for controlling cellular signaling with chemical inputs” (Nature Chemical Biology, 2023)

Test system: GEMS receptors with CBPA11 (BclXL–LD3 and BclXLhigh variants), STAT3-driven SEAP in HEK293T cells
Assay: GEMS SEAP reporter assay, CBPA11 (BclXLhigh, LD3-v and BclXL-v variants) with A-1155463
Assay type: cell-based
Design: key to Raw data (SEAP) / SEAP, replicate values / Raw data of Figure 5b / Raw data Figure 5e / Raw data of Independent repeat of CBPA11-v1 vs CBPA11-v1-LD3v3 / Raw data of Independent repeat of CBPA11-v3 vs CBPA11-v3-LD3v3 / Raw data of Figure 5b, CBPA11-v1-LD3v3 (SEAP reporter raw value, single replicate) / Raw data of Figure 5b, CBPA11-v1 (SEAP reporter raw value, single replicate): SEAP activity in U/L in culture supernatant
Text: To rationally design a CBP responding to a chemical input, we used BclXL as the druglow receptor, LD3 as the designed binder and a designed BclXL variant as the drughigh receptor (referred to as BclXLhigh) to construct a CBP responsive to BclXL inhibitors (Fig. 4a). To design BclXLhigh, we used a multistate design computational protocol described elsewhere[26] […] Thus, BclXLhigh-v(1–3) were chosen as the functional drughigh receptors, resulting in three A-1155463-controlled CBPs (referred to as CBPA11-v(1–3)) (Fig. 4c–e).
HEK293T cells were seeded in a 96-well plate 24 h before transfection. The transfection mix in each well consisted of 3 ng of constitutive human CMV promoter driven mammalian STAT3 expression vector (PhCMV-STAT3-pA), 30 ng of STAT3-induced reporter expression (OStat3-PhCMVmin-SEAP-pA) and 50 ng of expression vectors for each GEMS receptor chain (PSV40-IgK-(drughigh receptor)-EpoRm-IL-6RBm-pA and PSV40-IgK-(druglow receptor-GGGGSX3-LD3)-EpoRm-IL-6RBm-pA). For the specific drughigh receptor and druglow receptor used in the different cellular assays, they are indicated as wild type or with mutations. Then, plasmid DNA was mixed with 50 μl opti-MEM (Thermo Fisher) and 600 ng of polyethyleneimine (Polysciences, catalog no. 24765-1). For drug treatment experiments, drugs were added 12 h post-transfection and incubated with cells for 24 h before the SEAP reporter detection assay.
SEAP activity (U l^−1) in cell culture supernatants was quantified by kinetic measurements at 405 nm (1 minute per measurement for 30 cycles) of absorbance increase due to phosphatase-mediated hydrolysis of para-nitrophenyl phosphate (pNPP).
Binding affinities of SPR drug competition assays were calculated using three-parameter nonlinear regression in GraphPad Prism (v.8.3.0). Representative data of cell assays are presented as individual values and mean values (bars). n = 3 refers to biological replicates. All IC50 or EC50 values of cell assays reported were calculated using four-parameter nonlinear regression ± s.d. Bandpass features of cutoff concentrations and Bandwidth90% were estimated based on the curve fitted using bell-shaped curve nonlinear regression in GraphPad Prism (v.8.3.0). […]
Supplementary Figure 4: Design, screening and validation of BclXLhigh variants. a) Screening of BclXLhigh variants in the GEMS platform. […]
Dissociation constant measurement of BclXLhigh-v(1-3) and LD3. Equilibrium curves are fitted using […]
BclXLhigh-v1 (purple), BclXLhigh-v2 (blue), […]
a) Bcl2high-based bandpass filter designs were developed and to respond to different concentrations of […]
corresponding inhibitor. c) Screening of Bcl2high-based bandpass filter variants in the GEMS platform.
The designed binder LD3 was fused to the druglow-receptor (PSV40-IgK-Bcl2-LD3-EpoRm-IL-6RBm-pA) in one EpoR chain and Bcl2high variants with the insensitive Bcl2 (iBcl2) as control in the other EpoR chain (PSV40-IgK-Bcl2high-EpoRm-IL-6RBm-pA). HEK293T cells were transfected with indicated […]
the mean of six biological replicates ± s.d., overlaid with a scatter dot plot of the original data points.
(1 picture or pasted object on this page, not shown here)
Supplementary Figure 6: Binding affinities and drug resistances of Bcl2high-v(2,4,5) assessed by […]
a) Measurement of dissociation constants for Bcl2high-v(2,4,5) and LD3 interactions. Equilibrium curves […]
Bcl2high-v(2,4,5) measured by SPR. 5 μM of Bcl2 or indicated variants were mixed with 10 μM of […]
Bcl2high-v2 (red), Bcl2high-v4
Supplementary Figure 7: Screening of LD3 variants in CBPA11-v(1-3) and raw data of CBPA11-v(1,3) with LD3-v3 variant. a-c) Screening of LD3 and LD3-v(1-3) variants in complex with BclXL for more sensitive CBPA11-v1 (a), CBPA11-v2 (b), CBPA11-v3 (c) in the GEMS platform. The LD3 variants replaced the role of LD3 (PSV40-IgK-BclXL-LD3-v(1-3)-EpoRm-IL-6RBm-pA) in one EpoR chain and BclXLhigh-v(1-3) in the other EpoR chain (PSV40-IgK-BclXLhigh-V(1-3)-EpoRm-IL-6RBm-pA). HEK293T cells were transfected with […]

[1] = SuppFigure 9a, BclXL, A-1155463 3.16 nM
[2] = SuppFigure 9a, BclXL, A-1155463 100 nM
[3] = SuppFigure 9a, BclXL, A-1155463 316 nM
[4] = SuppFigure 9a, BclXL, A-1155463 1000 nM
[5] = SuppFigure 9a, BclXL, A-1155463 3160 nM
[6] = SuppFigure 9a, BclXL, A-1155463 10000 nM
[7] = SuppFigure 9b, BclXL-v1, A-1155463 1 nM
[8] = SuppFigure 9b, BclXL-v1, A-1155463 3.16 nM
[9] = SuppFigure 9b, BclXL-v1, A-1155463 10 nM
[10] = SuppFigure 9b, BclXL-v1, A-1155463 31.6 nM
[11] = SuppFigure 9b, BclXL-v1, A-1155463 100 nM
[12] = SuppFigure 9b, BclXL-v1, A-1155463 316 nM
[13] = SuppFigure 9b, BclXL-v1, A-1155463 1000 nM
[14] = SuppFigure 9b, BclXL-v1, A-1155463 3160 nM
[15] = SuppFigure 9b, BclXL-v1, A-1155463 10000 nM
[16] = SuppFigure 9b, BclXL-v2, A-1155463 1 nM
[17] = SuppFigure 9b, BclXL-v2, A-1155463 3.16 nM
[18] = SuppFigure 9b, BclXL-v2, A-1155463 10 nM
[19] = SuppFigure 9b, BclXL-v2, A-1155463 31.6 nM
[20] = SuppFigure 9b, BclXL-v2, A-1155463 100 nM
[21] = SuppFigure 9b, BclXL-v2, A-1155463 316 nM
[22] = SuppFigure 9b, BclXL-v2, A-1155463 1000 nM
[23] = SuppFigure 9b, BclXL-v2, A-1155463 3160 nM
[24] = SuppFigure 9b, BclXL-v2, A-1155463 10000 nM
[25] = SuppFigure 9b, BclXL-v3, A-1155463 1 nM
[26] = SuppFigure 9b, BclXL-v3, A-1155463 3.16 nM
[27] = SuppFigure 9b, BclXL-v3, A-1155463 10 nM
[28] = SuppFigure 9b, BclXL-v3, A-1155463 31.6 nM
[29] = SuppFigure 9b, BclXL-v3, A-1155463 100 nM
[30] = SuppFigure 9b, BclXL-v3, A-1155463 316 nM
[31] = SuppFigure 9b, BclXL-v3, A-1155463 1000 nM
[32] = SuppFigure 9b, BclXL-v3, A-1155463 3160 nM
[33] = SuppFigure 9b, BclXL-v3, A-1155463 10000 nM
[34] = SuppFigure 9b, BclXL, A-1155463 1 nM
[35] = SuppFigure 9b, BclXL, A-1155463 3.16 nM
[36] = SuppFigure 9b, BclXL, A-1155463 10 nM
[37] = SuppFigure 9b, BclXL, A-1155463 31.6 nM
[38] = SuppFigure 9b, BclXL, A-1155463 100 nM
[39] = SuppFigure 9b, BclXL, A-1155463 316 nM
[40] = SuppFigure 9b, BclXL, A-1155463 1000 nM
[41] = SuppFigure 9b, BclXL, A-1155463 3160 nM
[42] = SuppFigure 9b, BclXL, A-1155463 10000 nM
[43] = SuppFigure 9c, LD3, A-1155463 1 nM
[44] = SuppFigure 9c, LD3, A-1155463 3.16 nM
[45] = SuppFigure 9c, LD3, A-1155463 10 nM
[46] = SuppFigure 9c, LD3, A-1155463 31.6 nM
[47] = SuppFigure 9c, LD3, A-1155463 100 nM

CN(C)CC#Cc1ccc(OCCCc2sc(N3CCc4cccc(C(=O)Nc5nc6ccccc6s5)c4C3)nc2C(=O)O)c(F)c1 [A-1155463]
Normalized data (SEAP) [1]: 6.043
Raw data (SEAP) [1]: 25.9846
Normalized data (SEAP) [2]: 100
Raw data (SEAP) [2]: 429.99
Normalized data (SEAP) [3]: 92.0518
Raw data (SEAP) [3]: 395.813
Normalized data (SEAP) [4]: 64.9807
Raw data (SEAP) [4]: 279.41
Normalized data (SEAP) [5]: 59.757
Raw data (SEAP) [5]: 256.949
Normalized data (SEAP) [6]: 20.582
Raw data (SEAP) [6]: 88.5006
Normalized data (SEAP) [7]: 29.2402
Raw data (SEAP) [7]: 3.306
Normalized data (SEAP) [8]: 25.4197
Raw data (SEAP) [8]: 2.874
Normalized data (SEAP) [9]: 91.2564
Raw data (SEAP) [9]: 10.3177
Normalized data (SEAP) [10]: 99.5447
Raw data (SEAP) [10]: 11.2548
Normalized data (SEAP) [11]: 88.866
Raw data (SEAP) [11]: 10.0475
Normalized data (SEAP) [12]: 80.3713
Raw data (SEAP) [12]: 9.087
Normalized data (SEAP) [13]: 71.8768
Raw data (SEAP) [13]: 8.127
Normalized data (SEAP) [14]: 100
Raw data (SEAP) [14]: 11.3063
Normalized data (SEAP) [15]: 93.1986
Raw data (SEAP) [15]: 10.5373
Normalized data (SEAP) [16]: 14.254
Raw data (SEAP) [16]: 6.039
Normalized data (SEAP) [17]: 18.0852
Raw data (SEAP) [17]: 7.662
Normalized data (SEAP) [18]: 44.9661
Raw data (SEAP) [18]: 19.0516
Normalized data (SEAP) [19]: 70.6852
Raw data (SEAP) [19]: 29.9485
Normalized data (SEAP) [20]: 100
Raw data (SEAP) [20]: 42.3689
Normalized data (SEAP) [21]: 44.6168
Raw data (SEAP) [21]: 18.9036
Normalized data (SEAP) [22]: 22.2068
Raw data (SEAP) [22]: 9.409
Normalized data (SEAP) [23]: 14.8235
Raw data (SEAP) [23]: 6.281
Normalized data (SEAP) [24]: 14.5729
Raw data (SEAP) [24]: 6.174
Normalized data (SEAP) [25]: 52.1022
Raw data (SEAP) [25]: 4.346
Normalized data (SEAP) [26]: 54.3684
Raw data (SEAP) [26]: 4.535
Normalized data (SEAP) [27]: 49.6336
Raw data (SEAP) [27]: 4.14
Normalized data (SEAP) [28]: 58.6885
Raw data (SEAP) [28]: 4.895
Normalized data (SEAP) [29]: 75.7473
Raw data (SEAP) [29]: 6.318
Normalized data (SEAP) [30]: 55.3616
Raw data (SEAP) [30]: 4.618
Normalized data (SEAP) [31]: 57.9749
Raw data (SEAP) [31]: 4.836
Normalized data (SEAP) [32]: 83.7705
Raw data (SEAP) [32]: 6.988
Normalized data (SEAP) [33]: 90.2218
Raw data (SEAP) [33]: 7.526
Normalized data (SEAP) [34]: 18.8536
Raw data (SEAP) [34]: 4.217
Normalized data (SEAP) [35]: 21.8131
Raw data (SEAP) [35]: 4.879
Normalized data (SEAP) [36]: 73.5481
Raw data (SEAP) [36]: 16.4519
Normalized data (SEAP) [37]: 74.0156
Raw data (SEAP) [37]: 16.5565
Normalized data (SEAP) [38]: 100
Raw data (SEAP) [38]: 22.3689
Normalized data (SEAP) [39]: 57.787
Raw data (SEAP) [39]: 12.9263
Normalized data (SEAP) [40]: 39.6131
Raw data (SEAP) [40]: 8.861
Normalized data (SEAP) [41]: 30.6519
Raw data (SEAP) [41]: 6.8565
Normalized data (SEAP) [42]: 26.3116
Raw data (SEAP) [42]: 5.886
Normalized data (SEAP) [43]: 9.095
Raw data (SEAP) [43]: 7.283
Normalized data (SEAP) [44]: 10.2911
Raw data (SEAP) [44]: 8.241
Normalized data (SEAP) [45]: 55.7186
Raw data (SEAP) [45]: 44.6179
Normalized data (SEAP) [46]: 64.2529
Raw data (SEAP) [46]: 51.4519
Normalized data (SEAP) [47]: 100
Raw data (SEAP) [47]: 80.0772
Normalized data (SEAP) (SuppFigure 9c, LD3, A-1155463 316 nM): 76.4435
